Test results taken from patent US8969516B2, “Method of hydrolysis of peptide bond” (priority 2006, dated 2015).

Experiment: MALDI-TOF screening of Ni^2+ dependent hydrolysis in a combinatorial peptide library
Assay type: physicochemical
Settings: Ni^2+ 2 mM, pH 8.2, 10 mM Tris, score=24/tm
How it was run: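 Peptide sublibraries CH3CO-Gly-Ala-Ser/Thr-X-His-Z-Lys-Phe-Leu-NH2 (1 mM total) incubated with 2 mM Ni^2+ in 10 mM Tris pH 8.2 at 37 °C and 45 °C. Hydrolysis products, plus loss of substrate signals, detected by MALDI-TOF at 2, 4, 6 and 8 h; residues X and Z scored and ranked.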

[1] = CH3CO-Gly-Ala-Ser-X-His-Z-Lys-Phe-Leu-NH2 library, 37° C.
[2] = CH3CO-Gly-Ala-Ser-X-His-Z-Lys-Phe-Leu-NH2 library, 45° C.
[3] = CH3CO-Gly-Ala-Thr-X-His-Z-Lys-Phe-Leu-NH2 library, 37° C.
[4] = CH3CO-Gly-Ala-Thr-X-His-Z-Lys-Phe-Leu-NH2 library, 45° C.

## Ac-GASTHAKFL-NH2 [STHA]
[1]
  hydrolysis score from MALDI-TOF screening: 0 (a score of 0 if no trace of the product of hydrolysis was seen after 8 hours of incubation)
[2]
  hydrolysis score from MALDI-TOF screening: 0 (a score of 0 if no trace of the product of hydrolysis was seen after 8 hours of incubation)

## Ac-GATLHTKFL-NH2 [TLHT]
[3]
  hydrolysis score from MALDI-TOF screening: 0 (a score of 0 if no trace of the product of hydrolysis was seen after 8 hours of incubation)
[4]
  hydrolysis score from MALDI-TOF screening: 0 (a score of 0 if no trace of the product of hydrolysis was seen after 8 hours of incubation)

## Ac-GATQHNKFL-NH2 [TQHN]
[3]
  hydrolysis score from MALDI-TOF screening: 0 (a score of 0 if no trace of the product of hydrolysis was seen after 8 hours of incubation)
[4]
  hydrolysis score from MALDI-TOF screening: 0 (a score of 0 if no trace of the product of hydrolysis was seen after 8 hours of incubation)

## Ac-GASHHKKFL-NH2 [SHHK]
[1]
  hydrolysis score from MALDI-TOF screening: 6 (a score of 6 for detection at 4 hours)
[2]
  hydrolysis score from MALDI-TOF screening: 12 (a score of 12, if it was seen to be partially hydrolysed at 2 hours)

## Ac-GATSHEKFL-NH2 [TSHE]
[3]
  hydrolysis score from MALDI-TOF screening: 0 (a score of 0 if no trace of the product of hydrolysis was seen after 8 hours of incubation)
[4]
  hydrolysis score from MALDI-TOF screening: 0 (a score of 0 if no trace of the product of hydrolysis was seen after 8 hours of incubation)

## Ac-GASTHYKFL-NH2 [STHY]
[1]
  hydrolysis score from MALDI-TOF screening: 0 (a score of 0 if no trace of the product of hydrolysis was seen after 8 hours of incubation)
[2]
  hydrolysis score from MALDI-TOF screening: 3 (a score of 3 for detection at 8 hours)

## Ac-GASTHNKFL-NH2 [STHN]
[1]
  hydrolysis score from MALDI-TOF screening: 0 (a score of 0 if no trace of the product of hydrolysis was seen after 8 hours of incubation)
[2]
  hydrolysis score from MALDI-TOF screening: 0 (a score of 0 if no trace of the product of hydrolysis was seen after 8 hours of incubation)

## Ac-GATVHAKFL-NH2 [TVHA]
[3]
  hydrolysis score from MALDI-TOF screening: 0 (a score of 0 if no trace of the product of hydrolysis was seen after 8 hours of incubation)
[4]
  hydrolysis score from MALDI-TOF screening: 0 (a score of 0 if no trace of the product of hydrolysis was seen after 8 hours of incubation)

## Ac-GASQHNKFL-NH2 [SQHN]
[1]
  hydrolysis score from MALDI-TOF screening: 0 (a score of 0 if no trace of the product of hydrolysis was seen after 8 hours of incubation)
[2]
  hydrolysis score from MALDI-TOF screening: 0 (a score of 0 if no trace of the product of hydrolysis was seen after 8 hours of incubation)

## Ac-GATTHPKFL-NH2 [TTHP]
[3]
  hydrolysis score from MALDI-TOF screening: 0 (a score of 0 if no trace of the product of hydrolysis was seen after 8 hours of incubation)
[4]
  hydrolysis score from MALDI-TOF screening: 0 (a score of 0 if no trace of the product of hydrolysis was seen after 8 hours of incubation)

## Ac-GASFHSKFL-NH2 [SFHS]
[1]
  hydrolysis score from MALDI-TOF screening: 0 (a score of 0 if no trace of the product of hydrolysis was seen after 8 hours of incubation)
[2]
  hydrolysis score from MALDI-TOF screening: 0 (a score of 0 if no trace of the product of hydrolysis was seen after 8 hours of incubation)

## Ac-GASLHRKFL-NH2 [SLHR]
[1]
  hydrolysis score from MALDI-TOF screening: 3 (a score of 3 for detection at 8 hours)
[2]
  hydrolysis score from MALDI-TOF screening: 4 (a score of 4 for detection at 6 hours)

## Ac-GATSHGKFL-NH2 [TSHG]
[3]
  hydrolysis score from MALDI-TOF screening: 0 (a score of 0 if no trace of the product of hydrolysis was seen after 8 hours of incubation)
[4]
  hydrolysis score from MALDI-TOF screening: 0 (a score of 0 if no trace of the product of hydrolysis was seen after 8 hours of incubation)

## Ac-GASMHNKFL-NH2 [SMHN]
[1]
  hydrolysis score from MALDI-TOF screening: 0 (a score of 0 if no trace of the product of hydrolysis was seen after 8 hours of incubation)
[2]
  hydrolysis score from MALDI-TOF screening: 0 (a score of 0 if no trace of the product of hydrolysis was seen after 8 hours of incubation)

## Ac-GASTHDKFL-NH2 [STHD]
[1]
  hydrolysis score from MALDI-TOF screening: 0 (a score of 0 if no trace of the product of hydrolysis was seen after 8 hours of incubation)
[2]
  hydrolysis score from MALDI-TOF screening: 0 (a score of 0 if no trace of the product of hydrolysis was seen after 8 hours of incubation)

## Ac-GASMHGKFL-NH2 [SMHG]
[1]
  hydrolysis score from MALDI-TOF screening: 0 (a score of 0 if no trace of the product of hydrolysis was seen after 8 hours of incubation)
[2]
  hydrolysis score from MALDI-TOF screening: 0 (a score of 0 if no trace of the product of hydrolysis was seen after 8 hours of incubation)

## Ac-GASVHIKFL-NH2 [SVHI]
[1]
  hydrolysis score from MALDI-TOF screening: 3 (a score of 3 for detection at 8 hours)
[2]
  hydrolysis score from MALDI-TOF screening: 3 (a score of 3 for detection at 8 hours)

## Ac-GASSHHKFL-NH2 [SSHH]
[1]
  hydrolysis score from MALDI-TOF screening: 0 (a score of 0 if no trace of the product of hydrolysis was seen after 8 hours of incubation)
[2]
  hydrolysis score from MALDI-TOF screening: 3 (a score of 3 for detection at 8 hours)

## Ac-GASYHFKFL-NH2 [SYHF]
[1]
  hydrolysis score from MALDI-TOF screening: 3 (a score of 3 for detection at 8 hours)
[2]
  hydrolysis score from MALDI-TOF screening: 4 (a score of 4 for detection at 6 hours)

## Ac-GATAHMKFL-NH2 [TAHM]
[3]
  hydrolysis score from MALDI-TOF screening: 0 (a score of 0 if no trace of the product of hydrolysis was seen after 8 hours of incubation)
[4]
  hydrolysis score from MALDI-TOF screening: 0 (a score of 0 if no trace of the product of hydrolysis was seen after 8 hours of incubation)

## Ac-GATPHGKFL-NH2 [TPHG]
[4]
  hydrolysis score from MALDI-TOF screening: 0 (a score of 0 if no trace of the product of hydrolysis was seen after 8 hours of incubation)

## Ac-GASWHTKFL-NH2 [SWHT]
[1]
  hydrolysis score from MALDI-TOF screening: 0 (a score of 0 if no trace of the product of hydrolysis was seen after 8 hours of incubation)
[2]
  hydrolysis score from MALDI-TOF screening: 0 (a score of 0 if no trace of the product of hydrolysis was seen after 8 hours of incubation)

## Ac-GATWHEKFL-NH2 [TWHE]
[3]
  hydrolysis score from MALDI-TOF screening: 0 (a score of 0 if no trace of the product of hydrolysis was seen after 8 hours of incubation)
[4]
  hydrolysis score from MALDI-TOF screening: 0 (a score of 0 if no trace of the product of hydrolysis was seen after 8 hours of incubation)

## Ac-GASPHIKFL-NH2 [SPHI]
[1]
  hydrolysis score from MALDI-TOF screening: 0 (a score of 0 if no trace of the product of hydrolysis was seen after 8 hours of incubation)
[2]
  hydrolysis score from MALDI-TOF screening: 0 (a score of 0 if no trace of the product of hydrolysis was seen after 8 hours of incubation)

## Ac-GATTHQKFL-NH2 [TTHQ]
[3]
  hydrolysis score from MALDI-TOF screening: 0 (a score of 0 if no trace of the product of hydrolysis was seen after 8 hours of incubation)
[4]
  hydrolysis score from MALDI-TOF screening: 0 (a score of 0 if no trace of the product of hydrolysis was seen after 8 hours of incubation)

## Ac-GATRHNKFL-NH2 [TRHN]
[3]
  hydrolysis score from MALDI-TOF screening: 0 (a score of 0 if no trace of the product of hydrolysis was seen after 8 hours of incubation)
[4]
  hydrolysis score from MALDI-TOF screening: 0 (a score of 0 if no trace of the product of hydrolysis was seen after 8 hours of incubation)

## Ac-GATGHNKFL-NH2 [TGHN]
[3]
  hydrolysis score from MALDI-TOF screening: 0 (a score of 0 if no trace of the product of hydrolysis was seen after 8 hours of incubation)
[4]
  hydrolysis score from MALDI-TOF screening: 0 (a score of 0 if no trace of the product of hydrolysis was seen after 8 hours of incubation)

## Ac-GASHHRKFL-NH2 [SHHR]
[1]
  hydrolysis score from MALDI-TOF screening: 4 (a score of 4 for detection at 6 hours)
[2]
  hydrolysis score from MALDI-TOF screening: 6 (a score of 6 for detection at 4 hours)

## Ac-GASRHKKFL-NH2 [SRHK]
[1]
  hydrolysis score from MALDI-TOF screening: 6 (a score of 6 for detection at 4 hours)
[2]
  hydrolysis score from MALDI-TOF screening: 12 (a score of 12, if it was seen to be partially hydrolysed at 2 hours)

## Ac-GASGHQKFL-NH2 [SGHQ]
[1]
  hydrolysis score from MALDI-TOF screening: 0 (a score of 0 if no trace of the product of hydrolysis was seen after 8 hours of incubation)
[2]
  hydrolysis score from MALDI-TOF screening: 0 (a score of 0 if no trace of the product of hydrolysis was seen after 8 hours of incubation)

## Ac-GASTHRKFL-NH2 [STHR]
[1]
  hydrolysis score from MALDI-TOF screening: 3 (a score of 3 for detection at 8 hours)
[2]
  hydrolysis score from MALDI-TOF screening: 6 (a score of 6 for detection at 4 hours)

## Ac-GATSHWKFL-NH2 [TSHW]
[3]
  hydrolysis score from MALDI-TOF screening: 0 (a score of 0 if no trace of the product of hydrolysis was seen after 8 hours of incubation)
[4]
  hydrolysis score from MALDI-TOF screening: 0 (a score of 0 if no trace of the product of hydrolysis was seen after 8 hours of incubation)

## Ac-GATKHLKFL-NH2 [TKHL]
[3]
  hydrolysis score from MALDI-TOF screening: 4 (a score of 4 for detection at 6 hours)
[4]
  hydrolysis score from MALDI-TOF screening: 12 (a score of 12, if it was seen to be partially hydrolysed at 2 hours)

## Ac-GASYHIKFL-NH2 [SYHI]
[1]
  hydrolysis score from MALDI-TOF screening: 4 (a score of 4 for detection at 6 hours)
[2]
  hydrolysis score from MALDI-TOF screening: 6 (a score of 6 for detection at 4 hours)

## Ac-GATAHLKFL-NH2 [TAHL]
[3]
  hydrolysis score from MALDI-TOF screening: 0 (a score of 0 if no trace of the product of hydrolysis was seen after 8 hours of incubation)
[4]
  hydrolysis score from MALDI-TOF screening: 0 (a score of 0 if no trace of the product of hydrolysis was seen after 8 hours of incubation)

## Ac-GASYHVKFL-NH2 [SYHV]
[1]
  hydrolysis score from MALDI-TOF screening: 6 (a score of 6 for detection at 4 hours)
[2]
  hydrolysis score from MALDI-TOF screening: 4 (a score of 4 for detection at 6 hours)

## Ac-GATHHGKFL-NH2 [THHG]
[3]
  hydrolysis score from MALDI-TOF screening: 0 (a score of 0 if no trace of the product of hydrolysis was seen after 8 hours of incubation)
[4]
  hydrolysis score from MALDI-TOF screening: 4 (a score of 4 for detection at 6 hours)

## Ac-GATIHSKFL-NH2 [TIHS]
[3]
  hydrolysis score from MALDI-TOF screening: 0 (a score of 0 if no trace of the product of hydrolysis was seen after 8 hours of incubation)
[4]
  hydrolysis score from MALDI-TOF screening: 0 (a score of 0 if no trace of the product of hydrolysis was seen after 8 hours of incubation)

## Ac-GATYHEKFL-NH2 [TYHE]
[3]
  hydrolysis score from MALDI-TOF screening: 0 (a score of 0 if no trace of the product of hydrolysis was seen after 8 hours of incubation)
[4]
  hydrolysis score from MALDI-TOF screening: 0 (a score of 0 if no trace of the product of hydrolysis was seen after 8 hours of incubation)
